# Assay results: patent US20260274828A1, “BROAD SPECTRUM ANTIFUNGAL KETO-ALKYL-PYRIDINIUM COMPOUNDS” (priority 2023, published 2026)
# “Also recorded” adds a separate entry of the source.
# Key:
# C. auris [1] = conditions: cited from earlier work
# C. albicans [2] = assay: Checkerboard assay with clinical antifungals (FICI); assay type: cell-based, Candida albicans; conditions: for MIC: Candida albicans, read-out: MICA (MIC of each drug alone)
# Description: (§1) To determine if compounds interacted with clinically used antifungal drugs, checkerboard assays were performed and fractional inhibitory concentration indices were determined. […] The FICI for compound B and fluconazole is 8.25 due to the 8-fold increase in fluconazole concentration in the combination; however, the concentration of compound B at FIC is reduced by 4-fold relative to compound B as a single agent (Table 3).
# A. fumigatus [3] = assay: Planktonic MIC, CLSI guidelines; assay type: cell-based; conditions: Aspergillus fumigatus
# Description: (§2) Minimum inhibitory concentrations were determined using CLSI guidelines (Beattie & Krysan, 2021; Wiederhold, 2021). All yeasts were cultured overnight in 3 mL YPD at 30° C., then washed twice in sterile PBS. Two-fold serial dilutions of each compound were prepared in RMPI+MOPS pH 7 (Gibco RPMI 1640 with L-glutamine [11875-093] and 0.165M 352 MOPS), then 1×10^3 cells were added per well. Plates were incubated at 37° C. for 24 hours (C. albicans and S. cerevisiae) or 72 hours (C. neoformans). For A. fumigatus and F. oxysporum wells were inoculated with 1.25×10^4 conidia. Plates were incubated at 37° C. for 48 hours for A. fumigatus and 72 hours for F. oxysporum. All MICs are defined as the well with complete growth inhibition as determined by visual inspection with the exception of MICs of fluconazole against C. albicans where the MIC is defined as at least 50% reduction in growth compared to the control.
# C. glabrata = assay: Planktonic MIC, CLSI guidelines; assay type: cell-based; conditions: Nakaseomyces glabratus; strain KK2001
# Description: as §2
# C. neoformans = assay: Planktonic MIC, CLSI guidelines; assay type: cell-based; conditions: Cryptococcus neoformans
# Description: as §2
# F. oxysporum = assay: Planktonic MIC, CLSI guidelines; assay type: cell-based; conditions: Fusarium oxysporum; strain DUMC Fo
# Description: as §2
# C. albicans [4] = assay: Planktonic MIC, CLSI guidelines; assay type: cell-based, Candida albicans
# Description: as §2
# C. auris [5] = assay: Planktonic MIC, CLSI guidelines; assay type: cell-based, Candida auris; conditions: Candidozyma auris
# Description: as §2
# P. aeruginosa = assay: Antibacterial MIC; assay type: cell-based, Pseudomonas aeruginosa
# S. aureus = assay: Antibacterial MIC; assay type: cell-based; conditions: Staphylococcus aureus; strain Newman
# A. fumigatus [6] = assay: Checkerboard assay with clinical antifungals (FICI); assay type: cell-based, Aspergillus fumigatus; conditions: for MIC: Aspergillus fumigatus, read-out: MICA (MIC of each drug alone); for MIC / MICC (MIC in combination): checkerboard B x Voriconazole
# Description: as §1
# [7] = system: A. fumigatus CEA10 hyphae; assay: Metabolic activity of hyphae/biofilms (resazurin); assay type: cell-based; conditions: Aspergillus fumigatus, CEA10HYPHAE, 24 h pre-incubation, 24 h exposure, read-out: hyphal metabolic activity IC50
# Source text: (§3) CLSI testing of antifungal activity of molds is based on inoculation with conidia and, therefore, measures inhibition of germination (Widerhold, 2021). For example, voriconazole is the gold standard for treatment of pulmonary infection and inhibits germination. The most important A. fumigatus infection that requires non-systemic therapy is fungal keratitis (Hoffman et al., 2022). At the time of clinical presentation, A. fumigatus is exclusively in the hyphal form. […] A. fumigatus CEA10 was incubated for 24 hours prior to exposure to a dilution series of compound B or C for an additional 24 hours. The metabolic activity of the cultures was determined using resazurin as previously described (Mao et al., 2020). […] To further characterize the mode of action of the KAPs against A. fumigatus hyphae, CEA10 was treated with compound B for 24 hours and then the cells were stained with propidium iodide, a dye that is excluded from cells with intact membranes (FIG. 2D).
# [8] = system: A. fumigatus CEA10 hyphal cells; assay: Propidium iodide staining and DIC imaging of hyphae; assay type: cell-based, Aspergillus fumigatus; conditions: 16 μg/mL, 24 hours
# Source text: as §3
# red blood cells = assay: Red blood cell lysis assay; assay type: cell-based, sheep; conditions: 2 h, normalized to max lysis by triton-x
# Description: Hemolysis assays were performed with defibrinated sheep's blood (Lampire, Cat #7239001). Blood was washed three times with PBS then resuspended to about 50% hematocrit in PBS. A two-fold dilution series of the compounds in 200 μL PBS with equal DMSO concentration across the series, then red blood cells were added with a final concentration of 2% hematocrit. Cells were incubated at RT for 2 hours in a v-bottom microtiter plate, then plates were spun down and supernatant was transferred to a flat bottom microtiter plate for absorbance measurement at 570 nm. Compounds were tested in technical triplicate in at least two independent assays performed on different days.
# HepG2 cells = assay: Mammalian cell culture toxicity assay (LDH release and XTT); assay type: cell-based, human
# Description: HepG2 cells (ATCC, #) were maintained and cultured in HepG2 media (DMEM (Gibco, Cat #11965-092) with 5% FBS, 20 mM Glutamine, and Penicillin/Streptomycin) at 37° C. with 5% CO2. Cells were seeded in 96-well plates at a density of 1.25×10^4 cells/well and incubated overnight at 37° C. with 5% CO2, then media was removed and replaced with media containing a two-fold dilution series of compounds with equal DMSO concentrations across all wells including no compound controls. Cells were incubated for an additional 24 hours. Supernatant was removed and used to quantify lactate dehydrogenase release using the CyQuant LDH assay kit (Invitrogen, Cat #C20300) following the manufacturer's directions. LDH signal was normalized to a max lysis control. The remaining cells were then used to quantify cellular metabolism by XTT. Briefly, cells were washed, then 0.9 mg/mL XTT (Sigma, CAT #X4626)+320 μg/mL PMS ([…] methosulfate; Sigma, Cat #P9625) in HepG2 media was added to each well. Plates were incubated at 37° C., with 5% CO2 for 2 hours, then absorbance was measured at 490 nm.
# C. albicans [9] = assay: Planktonic MIC, CLSI guidelines; assay type: cell-based, Candida albicans; conditions: data not shown
# [10] = system: medically important yeasts and molds; assay: Antifungal activity, general statements; assay type: cell-based
# Description: as §2
# C. albicans [11] = conditions: Yamashita et al., 2019; cited from earlier work
# human cell lines = conditions: Kim et al., 2021; cited from earlier work
# [12] = checkerboard B x Amphotericin B
# [13] = A. fumigatus CEA10, Table 4, read-out: A. fumigatus MIC
# [14] = Candida albicans, C. albicans SC5314, Table 4, read-out: C. albicans MIC
smiles,measurement,setting,value
"[H]/N=C(\N/C(=N/[H])NCCCCCCNC(=N)NC(=N)Nc1ccc(Cl)cc1)Nc1ccc(Cl)cc1 [2% chlorhexidine, chlorhexidine]",reduction of fungal burden of colonized porcine skin,"C. auris [1]; 72 hour experiment, three daily applications, Johnson et al., 2021",about 0.5 log10
"C[C@@H]1[C@H](O)[C@@H](C)/C=C/C=C/C=C/C=C/C=C/C=C/C=C/[C@H](O[C@@H]2O[C@H](C)[C@@H](O)[C@H](N)[C@@H]2O)C[C@@H]2O[C@](O)(C[C@@H](O)C[C@@H](O)[C@H](O)CC[C@@H](O)C[C@@H](O)CC(=O)O[C@H]1C)C[C@H](O)[C@H]2C(=O)O [Amphotericin B, reference compound]",MICA (MIC of each drug alone),C. albicans [2]; [12],0.5 µg/mL
same,MICC (MIC in combination),C. albicans [2]; [12],0.25 µg/mL
Cc1cc[n+](CC(=O)c2ccc(-c3ccc(Oc4ccccc4)cc3)cc2)cc1.[Br-] [Compound B],MIC,"A. fumigatus [3]; strain AF293, read-out: MIC",1 µg/mL
same,MIC,"A. fumigatus [3]; strain CEA10, read-out: MIC",8 µg/mL
same,MIC,"A. fumigatus [3]; strain Cas^R, read-out: MIC",16 µg/mL
same,MIC,"A. fumigatus [3]; strain SPF98, read-out: MIC",16 µg/mL
same,MIC,C. glabrata,1 µg/mL
same,MIC,C. neoformans; strain DUMC 118.00,2 µg/mL
same,MIC,C. neoformans; strain DUMC 122.01,4 µg/mL
same,MIC,C. neoformans; strain H99,2 µg/mL
same,MIC,F. oxysporum,16 µg/mL
same,MIC,"C. albicans [4]; Candida albicans, strain SC5314, read-out: MIC",8 µg/mL
same,MIC,"C. albicans [4]; Candida albicans, strain TWO #15, fluconazole-resistant, read-out: MIC",4 µg/mL
same,MIC,"C. albicans [4]; strain TWO #17, fluconazole-resistant",4 µg/mL
same,MIC,"C. auris [5]; strain 0381, drug susceptible",16 µg/mL
same,MIC,"C. auris [5]; strain 0390, multi-drug resistant",4 µg/mL
same,activity compared to cetylpyridinium chloride,P. aeruginosa; P. aeruginosa,more active
same,MIC,"P. aeruginosa; Pseudomonas aeruginosa, strain PAO1",32 µg/mL
same,MIC,S. aureus,16 µg/mL
same,FICI,C. albicans [2]; B with Amphotericin B,0.75
same,FICI,C. albicans [2]; B with Fluconazole,8.25
same,MIC,C. albicans [2]; [12],4 µg/mL
same,MIC,C. albicans [2]; checkerboard B x Fluconazole,16 µg/mL
same,MICC (MIC in combination),C. albicans [2]; [12],1 µg/mL
same,MICC (MIC in combination),C. albicans [2]; checkerboard B x Fluconazole,4 µg/mL
same,reduction of concentration at FIC relative to single agent,C. albicans [2]; combination with fluconazole,4 fold
same,interaction with clinical antifungal,C. albicans [2]; with amphotericin B,indifferent (2 < FICI < 4 = indifferent)
same,interaction with clinical antifungal,C. albicans [2]; with caspofungin,indifferent (2 < FICI < 4 = indifferent)
same,interaction with clinical antifungal,C. albicans [2]; with fluconazole,antagonistic
same,MIC,A. fumigatus [6],16 µg/mL
same,FICI,A. fumigatus [6]; B with Voriconazole,0.625
same,MICC (MIC in combination),A. fumigatus [6],2 µg/mL
same,interaction with clinical antifungal,A. fumigatus [6]; with voriconazole,indifferent (2 < FICI < 4 = indifferent)
same,IC50,[7],3.9 µg/mL
same,DIC images of hyphae,[8],loss of refractivity and fragmentation of hyphae
same,propidium iodide staining,[8],uniform uptake of dye
same,red blood cell lysis LD50,red blood cells,78.6 µg/mL
same,"LD50, cell lysis assay","HepG2 cells; HepG2, LDH release, 24 h",9 µg/mL
same,"LD50, metabolic activity assay","HepG2 cells; HepG2, XTT, 24 h",20 µg/mL
same,"LD50, toxicity against human cell lines",HepG2 cells; readout not given,20 µg/mL
same,change in MIC with glycerol instead of glucose as carbon source,C. albicans [9],not observed
COc1ccc(F)c(-c2ccc(C(=O)C[n+]3ccc(N)cc3)cc2)c1.[Br-] [Compound C],red blood cell lysis LD50,red blood cells,> 1000 µg/mL
same,antifungal activity,[10],inactive; also recorded: no antifungal activity
N=C(N)c1ccc(OCCCC2CCN(CCCOc3ccc(C(=N)N)cc3)CC2)cc1 [Compound T-2307],MIC on 2% glycerol compared to 2% dextrose,C. albicans [11],decreases dramatically
"OC(Cn1cncn1)(Cn1cncn1)c1ccc(F)cc1F [Fluconazole, reference compound]",MIC,C. albicans [2]; checkerboard B x Fluconazole,0.125 µg/mL
same,MICC (MIC in combination),C. albicans [2]; checkerboard B x Fluconazole,1 µg/mL
same,increase in fluconazole concentration in the combination,C. albicans [2]; combination with compound B,8 fold
Nc1cc[n+](CC(=O)c2ccc3c(c2)OC(c2cccc(C(F)(F)F)c2)(c2cccc(C(F)(F)F)c2)O3)cc1.[Cl-] [KAP-1],MIC,A. fumigatus [3]; [13],16 µg/mL
same,MIC,C. albicans [4]; [14],1 µg/mL
Cc1ccc(-c2ccc(C(=O)C[n+]3ccc(N)cc3)cc2)c2ccccc12.[Cl-] [KAP-2],MIC,A. fumigatus [3]; [13],16 µg/mL
same,MIC,C. albicans [4]; [14],8 µg/mL
Cc1cc[n+](CC(=O)c2ccc(-c3ccc(Oc4ccccc4)cc3)cc2)cc1.[Cl-] [KAP-3],MIC,A. fumigatus [3]; [13],8 µg/mL
same,MIC,C. albicans [4]; [14],4 µg/mL
Cc1cc[n+](CC(=O)c2ccc(-c3ccc(Oc4ccc(F)cc4)cc3)cc2)cc1.[Cl-] [KAP-4],MIC,A. fumigatus [3]; [13],16 µg/mL
same,MIC,C. albicans [4]; [14],4 µg/mL
Nc1cc[n+](CC(=O)c2ccc(Oc3ccccc3)cc2)cc1.[Cl-] [KAP-5],MIC,A. fumigatus [3]; [13],> 64 µg/mL
"C[C@@H](c1ncncc1F)[C@](O)(Cn1cncn1)c1ccc(F)cc1F [Voriconazole, reference compound]",MIC,A. fumigatus [6],0.25 µg/mL
same,MICC (MIC in combination),A. fumigatus [6],0.125 µg/mL
CCCCCCCCCCCCCCCC[n+]1ccccc1 [cetylpyridinium chloride],"LD50, toxicity against human cell lines",human cell lines,6 µg/mL
N=C(NCCCCCCNC(=N)NC(=N)Nc1ccc(Cl)cc1)NC(=N)Nc1ccc(Cl)cc1.O=C(O)[C@H](O)[C@@H](O)[C@H](O)[C@H](O)CO.O=C(O)[C@H](O)[C@@H](O)[C@H](O)[C@H](O)CO [chlorhexidine gluconate],activity against C. auris colonization of skin,C. auris [1]; comparison stated in Example 2,minimally active
